Source: PubChem BioAssay (NCI)
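Following 48 hours of exposure in 96-well plates, responses at five concentrations were used to interpolate endpoints linearly. TGI marks complete inhibition of growth.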

How the values were obtained:
Assay in all cases: NCI-60 cell line screen, 48 h
A498 renal = tested on: A498 renal
CAKI-1 renal = tested on: CAKI-1 renal
COLO 205 colon = tested on: COLO 205 colon
DU-145 prostate = tested on: DU-145 prostate
NCI/ADR-RES ovarian = tested on: NCI/ADR-RES ovarian
SK-MEL-5 melanoma = tested on: SK-MEL-5 melanoma
T-47D breast = tested on: T-47D breast
TK-10 renal = tested on: TK-10 renal
UO-31 renal = tested on: UO-31 renal
MOLT-4 leukemia = tested on: MOLT-4 leukemia
RXF 393 renal = tested on: RXF 393 renal
SR leukemia = tested on: SR leukemia

Row | SMILES | TGI (A498 renal) [µM] | TGI (CAKI-1 renal) [µM] | TGI (COLO 205 colon) [µM] | TGI (DU-145 prostate) [µM] | TGI (NCI/ADR-RES ovarian) [µM] | TGI (SK-MEL-5 melanoma) [µM] | TGI (T-47D breast) [µM] | TGI (TK-10 renal) [µM] | TGI (UO-31 renal) [µM] | TGI (MOLT-4 leukemia) [µM] | TGI (RXF 393 renal) [µM] | TGI (SR leukemia) [µM]
1 | Cc1ccc2c(c1)-c1nc(N)c(C#N)c(-c3ccccc3)c1CCS2(=O)=O | 98.9 | > 100 | > 100 | > 100 | > 100 | > 100 | > 100 | 61 | > 100 |  |  | 
2 | O=C1Oc2cc(O)cc(/C=C/c3ccc(O)cc3)c2[C@@]12c1c(O)cc(O)cc1OC2c1cccc(O)c1 (some centres undefined) |  | > 100 | 69.7 | > 100 | > 100 | 43.3 | > 100 | > 100 | > 100 | > 100 | 94.3 | > 100
3 | COc1ccccc1C(=O)c1c(NCc2ccccc2)c(=O)c1=O | > 100 | > 100 | 98.7 | > 100 | > 100 | > 100 |  | > 100 | > 100 | 83.3 |  | 
4 | CC(C)NC(=O)CN1CCN(c2c(O)c3c(c(O)c2Cl)C(=O)C=CC3=O)CC1 | 7.29 | 5 | 2.89 | 7.31 | 10.7 | 3.45 | 3.67 | 4.27 | 2.64 |  | 2.92 | 
5 | CCN1CCC(O)(c2ccc(Cl)cc2)C(C(=O)c2ccc(Cl)cc2)C1 (centres undefined) | > 100 |  | > 100 |  |  | > 100 |  | > 100 | > 100 | > 100 | > 100 | > 100
6 | COI1NC(=O)c2ccccc21 | > 100 |  | > 100 | > 100 | > 100 | > 100 |  | > 100 | > 100 | > 100 |  | > 100
7 | CCN(CC)C(=O)C(C)n1cc(C)c(=O)[nH]c1=O (centres undefined) |  |  | > 100 |  |  | > 100 |  | > 100 | > 100 | > 100 | > 100 | 
8 | CC(=O)c1cc2ccccc2oc1=O | > 100 | > 100 | > 100 | > 100 | > 100 | > 100 |  | > 100 | > 100 | > 100 | > 100 | > 100
9 | COc1cc(/C=C/C(=O)C2(C(=O)/C=C/c3cc(OC)c(OC)c(OC)c3)CCCCC2)cc(OC)c1OC | > 100 | > 100 | > 100 | > 100 | > 100 | > 100 | > 100 | > 100 | > 100 |  |  | > 100
10 | Cc1cc(=O)oc2c(CNC(Cc3ccccc3)C(=O)O)c(O)ccc12 (centres undefined) |  | > 100 | > 100 | > 100 | > 100 | > 100 | > 100 | > 100 | > 100 | > 100 | > 100 | > 100
11 | Nc1nc2c3nc(Nc4ccccc4)sc3nc(=O)n2c2sc(Nc3ccccc3)nc12 | > 100 |  | > 100 |  |  | > 100 |  |  | > 100 | > 100 | > 100 | > 100
12 | COC(=O)c1c2cccccc-2c(Cc2c3cccccc-3c(C(=O)OC)c2O)c1O | > 100 | > 100 | > 100 |  |  | > 100 |  | > 100 | > 100 | > 100 |  | > 100
13 | O=C1CSC(c2cccc([N+](=O)[O-])c2)N1c1ccc(-n2c(-c3ccccc3)nc3ccccc3c2=O)cc1 (centres undefined) | > 100 | > 100 | > 100 | > 100 | > 100 | > 100 | > 100 | > 100 | 65.6 | > 100 |  | > 100
14 | COc1cc(Cc2nccc3cc(OC)c(OC)cc23)c(N=NN(C)C)cc1OC |  | 22.3 | 33.8 | 35.7 | 96.7 | 26.4 | 25.4 | 44.1 | 44.8 | 90.3 | 16.4 | 
15 | Cc1ccc(S(=O)(=O)NNCNC(=O)c2ccccc2)cc1 |  | > 100 | > 100 | > 100 | > 100 | > 100 | > 100 | > 100 | > 100 | > 100 | > 100 | 33.1
16 | O=C(NNC(=S)NC1CCCCC1)c1csc(NC(=S)NC2CCCCC2)n1 | 36.3 | 24.2 | 14.1 | > 100 | 13.3 | 8.79 | 74.6 | > 100 | 11.2 | 25.5 |  | > 100
17 | Nn1c(Cc2ccc([N+](=O)[O-])cc2)n[nH]c1=O |  | > 100 | > 100 | > 100 | > 100 | > 100 | > 100 |  | > 100 | > 100 |  | > 100
18 | OC(c1cc(C23CC4CC(CC(C4)C2)C3)nc2c(Cl)cc(Cl)cc12)C1CCCCN1 (centres undefined) | 3.05 | 3.24 |  | 3.29 |  |  |  | 3.23 | 2.35 | 3.57 | 3.07 | 2.84
19 | CCC(C#N)NCc1cccc(CNC(C#N)CC)c1 (centres undefined) | > 100 | > 100 | > 100 | > 100 | > 100 | > 100 | > 100 | > 100 | > 100 | > 100 |  | 
